Experimental findings from article PMC9923724, “Half sandwich-type osmium, ruthenium, iridium and rhodium complexes with bidentate glycosyl heterocyclic ligands induce cytostasis in platinum-resistant ovarian cancer cells and bacteriostasis in Gram-positive multiresistant bacteria” (Frontiers in Chemistry, 2023) are described below.

A short description of the data set: Solubility / precipitation observed during testing. The format is physicochemical. As to conditions: free ligand in cell assays. How it is done:
In concentrations exceeding 33.3 µM the complexes frequently precipitated. All of the complexes and the free ligand exerted little rapid cytotoxicity in MTT assays, not more than 35% in any of the cell lines assessed in the peak concentration, except for the Os-7 complex with 75% toxicity on ID8 cells (Figure 5; Table 2). […] The complexes were more efficient in ID8 cells as compared to A2780 cells (Figure 5; Table 2). […] On primary non-transformed fibroblasts, used as controls, the complexes exerted negligible toxicity and low cytostatic activity (Figure 5; Table 2). The cytostatic activity was not more than 50% in the peak concentration.

For the compound `CCCCCCCC(=O)OC[C@H]1O[C@@H](n2cc(-c3ccccn3)nn2)[C@H](OC(=O)CCCCCCC)[C@@H](OC(=O)CCCCCCC)[C@@H]1OC(=O)CCCCCCC` [L-6], the “solubility (suitability for testing)” value was “insoluble”.
